Data taken from patent US20100310420A1, “SENSORS” (THE TRUSTEES OF PRINCETON UNIVERSITY, priority 2003, published 2010).

Legend:
[1] = test system: eJSmcp1[pJStari1, pJSxcmcp1]; assay: Swarming of eJSmcp1[pJStari1, pJSxcmcp1] grown with methyl-D-aspartate; assay type: cell-based, E. coli; conditions: grown in the presence vs absence of methyl-D-aspartate; Tar-expressing transformed strain
Description: (§1) eJSmcp1[pJStari1, pJSxcmcp1] is grown in the absence and in the presence of methyl-D-aspartate.

[2] = test system: wild type aspartate responsive control cells; assay: Swarming of wild type control cells grown with methyl-D-aspartate; assay type: cell-based, E. coli; conditions: grown in the presence vs absence of methyl-D-aspartate
Description: as §1

methyl-D-aspartate
Swarming [1]: Swarming is seen in the presence of the aspartate but not in its absence | Swarming [2]: same results are seen
